Legend:
IκB-α kinase = IκB-α kinase inhibitory activity, in vitro kinase assay; type: biochemical
p34^cdc2/cyclin B (CDC2) = target: T1, p34^cdc2/cyclin B (CDC2) (Homo sapiens, UniProt P06493); assay: CDK inhibition assay, p34cdc2/cyclin B kinase, histone H1 phosphorylation; type: biochemical
T1 construct: made in house; host or cells: Sf9 insect cells (baculovirus co-infection)
Method: Cyclin-dependent kinases (p34^cdc2, p33^cdk2) and cyclins (cyclin B, E) are produced in Sf9 insect cells coinfected with appropriate baculoviral constructs. The cells are harvested 68-72 hrs post infection in lysis buffer for 30 min on ice and the soluble fraction is recovered by centrifugation at 14.000 g for 10 min. The protein extract is stored at −80° C.
Lysis buffer: 50 mM Tris pH 7.4, 150 mM NaCl, 5 mM EDTA, 20 mM NaF, 1% Tween, 1 mM DTT, 0.1 mM PMSF, leupeptine, aprotonine.
To carry out experiments on kinetics under linear conditions, the final point test system for kinase activity measurement is used. The kinase is added to reaction mixture in such a way as to obtain linear activity with respect to the concentration of enzyme and with respect to time.
The p34^cdc2 and p33^cdk2 kinase inhibition determination involves the use of 1 mg/ml histone H1 (Sigma, type III-S) in the presence of 15 μM [γ-^32P]ATP ([…]) (Amersham) in a final volume of 20 μl. Kinase activity is determined at 30° C. in the kinase buffer.
Tested compounds are usually dissolved to 100 mM solutions in DMSO, final concentration of DMSO in reaction mixture never exceeds 1%. The controls contain suitable dilutions of DMSO.
After 10 min, addition 3×SDS sample buffer stops the incubations. Phosphorylated proteins are separated electrophoretically using 12.5% SDS polyacrylamide gel. The measurement of kinase activity is done using digital image analysis.
The kinase activity is expressed as a percentage of maximum activity, the apparent inhibition constants are determined by graphic analysis (FIG. 1).
Kinase buffer: 50 mM Hepes pH 7.4, 10 mM MgCl2, 5 mM EGTA, 10 mM 2-glycerolphosphate, 1 mM NaF, 1 mM DTT

T1 sequence (P06493 whole entry, species assumed): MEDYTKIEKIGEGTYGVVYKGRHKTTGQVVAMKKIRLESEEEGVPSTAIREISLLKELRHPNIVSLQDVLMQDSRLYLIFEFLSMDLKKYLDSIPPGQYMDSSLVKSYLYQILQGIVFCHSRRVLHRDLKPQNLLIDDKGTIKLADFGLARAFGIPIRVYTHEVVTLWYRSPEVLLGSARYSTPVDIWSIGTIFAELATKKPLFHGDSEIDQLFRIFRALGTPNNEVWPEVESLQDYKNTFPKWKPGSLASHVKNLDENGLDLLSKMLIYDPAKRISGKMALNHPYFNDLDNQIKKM
T1 sequence (P14635 whole entry partner, species assumed): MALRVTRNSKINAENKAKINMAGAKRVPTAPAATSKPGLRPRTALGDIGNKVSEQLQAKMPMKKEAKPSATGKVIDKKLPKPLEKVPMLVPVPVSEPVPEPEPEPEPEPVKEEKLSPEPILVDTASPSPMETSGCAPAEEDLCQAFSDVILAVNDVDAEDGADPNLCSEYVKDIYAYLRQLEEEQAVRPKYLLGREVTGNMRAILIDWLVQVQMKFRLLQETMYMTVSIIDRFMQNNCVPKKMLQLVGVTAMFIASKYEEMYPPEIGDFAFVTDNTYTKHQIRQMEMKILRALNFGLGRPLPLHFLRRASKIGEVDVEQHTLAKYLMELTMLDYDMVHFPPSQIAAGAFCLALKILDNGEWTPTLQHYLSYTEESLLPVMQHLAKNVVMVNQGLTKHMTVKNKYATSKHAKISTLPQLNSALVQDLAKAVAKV

SMILES	IC50 (IκB-α kinase)	IC50 (p34^cdc2/cyclin B (CDC2))
CC(C)[C@H](CO)Nc1nc(Nc2ccc(C(=O)O)c(Cl)c2)c2nnn(C(C)C)c2n1	–	25 µM
CC[C@H](CO)Nc1nc(Nc2ccc(Cl)cc2)c2nnn(C(C)C)c2n1	–	27 µM
CC(C)[C@H](CO)Nc1nc(NCc2ccc(Cl)c(O)c2O)c2nnn(C(C)C)c2n1	> 100 µM	11 µM
Cn1nnc2c(NCc3ccccc3)nc(NCCCN)nc21	> 100 µM	90 µM
CC(C)[C@H](CO)Nc1nc(NCc2cc(O)c(Cl)cc2O)c2nnn(C(C)C)c2n1	> 100 µM	8 µM
Cn1nnc2c(NCc3ccccc3)nc(NCCO)nc21	> 100 µM	> 100 µM
CC(C)[C@H](CO)Nc1nc(NCc2c(N)cccc2Cl)c2nnn(C(C)C)c2n1	> 100 µM	10 µM
CC[C@H](CO)Nc1nc(N(C)Cc2ccc(O)c(O)c2)c2nnn(C(C)C)c2n1	> 100 µM	–
Cn1nnc2c(NCc3ccc(Cl)c(N)c3N)nc(NCCO)nc21	> 100 µM	68 µM
Cn1nnc2c(Nc3cc(N)cc(Cl)c3)nc(NCCO)nc21	> 100 µM	50 µM
CC[C@H](CO)Nc1nc(NCc2cc(O)c(Cl)cc2O)c2nnn(C(C)C)c2n1	> 100 µM	16 µM
CC[C@H](CO)Nc1nc(NCc2c(O)cc(OC)cc2O)c2nnn(C(C)C)c2n1	> 100 µM	17 µM
COc1cccc(CNc2nc(NCCO)nc3c2nnn3C)c1O	> 100 µM	43 µM
CC[C@H](CO)Nc1nc(N(C)CCc2ccc(O)c(O)c2)c2nnn(C(C)C)c2n1	> 100 µM	> 100 µM
Cn1nnc2c(Nc3ccc(Br)cc3)nc(NCCO)nc21	> 100 µM	> 100 µM
CC[C@H](CO)Nc1nc(Nc2ccc(Cl)c(C(=O)O)c2)c2nnn(C(C)C)c2n1	> 100 µM	40 µM
Cn1nnc2c(Nc3ccc(O)c(C(=O)O)c3)nc(NCCO)nc21	> 100 µM	58 µM
Cn1nnc2c(NCc3cccc(Cl)c3O)nc(NCCO)nc21	> 100 µM	70 µM
CC[C@H](CO)Nc1nc(NCc2ccccc2C(C)=O)c2nnn(C(C)C)c2n1	> 100 µM	37 µM
Cn1nnc2c(Nc3ccc(Cl)cc3)nc(NCCO)nc21	> 100 µM	> 100 µM
COc1cc(O)c(CNc2nc(NCCO)nc3c2nnn3C)c(O)c1	–	18.2 µM

SMILES	IC50 (IκB-α kinase)	IC50 (p34^cdc2/cyclin B (CDC2))
Cn1nnc2c(NCc3ccccc3)nc(N(CCO)CCO)nc21	> 100 µM	–
Cn1nnc2c(Nc3ccccc3)nc(NCCO)nc21 [2-hydroxyethylamino / anilino / methyl]	> 100 µM	42 µM
Cn1nnc2c(Nc3ccc(C(=O)O)c(Cl)c3)nc(NCCO)nc21	> 100 µM	52 µM
CCC(CO)Nc1nc(NC(CO)c2ccccc2)c2nnn(C(C)C)c2n1 (stereo not shown)	> 100 µM	–
CC[C@H](CO)Nc1nc(NCc2ccc(OC)c(O)c2O)c2nnn(C(C)C)c2n1	> 100 µM	14 µM
CCC(CO)Nc1nc(NCc2cccc(Cl)c2O)c2nnn(C(C)C)c2n1 (stereo not shown)	–	16 µM
CC[C@H](CO)Nc1nc(NCc2ccc(Cl)c(N)c2N)c2nnn(C(C)C)c2n1	> 100 µM	45 µM
CC[C@H](CO)Nc1nc(NCc2ccccc2)c2nnn(C(C)C)c2n1 [2-[1(R)-Hydroxymethylpropylamino]-6-benzylamino-9-isopropyl-8-azapurine]	> 100 µM	–
Cn1nnc2c(NC(CO)c3ccccc3)nc(NCCO)nc21 (racemic)	> 100 µM	80 µM
CC(C)n1nnc2c(NCc3ccccc3)nc(NCCO)nc21	> 100 µM	> 100 µM
CC(C)n1nnc2c(NCc3ccccc3)nc(N(CCO)CCO)nc21	> 100 µM	95 µM
CC(=O)c1ccccc1CNc1nc(NCCO)nc2c1nnn2C	> 100 µM	70 µM
CC(C)[C@H](CO)Nc1nc(NCc2ccc(Cl)c(N)c2)c2nnn(C(C)C)c2n1	> 100 µM	30 µM
CC[C@H](CO)Nc1nc(NCc2ccccc2)c2nnn(C)c2n1	> 100 µM	–
CC(C)[C@H](CO)Nc1nc(NCc2c(O)cc(Cl)cc2O)c2nnn(C(C)C)c2n1	–	18 µM
COc1cc(O)c(CNc2nc(NCCO)nc3c2nnn3C)cc1O	–	22 µM
Cn1nnc2c(NCc3ccc(Cl)c(N)c3)nc(NCCO)nc21	–	50 µM
CC[C@H](CO)Nc1nc(NCc2c(O)cc(Cl)cc2O)c2nnn(C(C)C)c2n1	–	12 µM
CC[C@H](CO)Nc1nc(NCc2cccc(OC(C)=O)c2)c2nnn(C(C)C)c2n1	> 100 µM	24 µM
CC(C)[C@H](CO)Nc1nc(N(C)CCc2ccc(O)c(O)c2)c2nnn(C(C)C)c2n1	> 100 µM	–

Second part, the compound after the results:

IC50 (IκB-α kinase)	IC50 (p34^cdc2/cyclin B (CDC2))	SMILES
> 100 µM	85 µM	Cc1cccc(CNc2nc(NCCO)nc3c2nnn3C)c1O
40 µM	36 µM	CC(=O)Oc1ccccc1CNc1nc(NCCO)nc2c1nnn2C
> 100 µM	12 µM	CC[C@H](CO)Nc1nc(NCc2cc(O)c(OC)cc2O)c2[nH]nc(C(C)C)c2n1
> 100 µM	50 µM	CC[C@H](CO)Nc1nc(Nc2ccc(N)c(Cl)c2)c2nnn(C(C)C)c2n1
> 100 µM	> 100 µM	CC(C)n1nnc2c(NCc3ccccc3)nc(NCCCO)nc21 [2-(3-Hydroxypropylamino)-6-benzylamino-9-isopropyl-8-azapurine]
40 µM	17 µM	Cn1nnc2c(NCc3cccc(O)c3)nc(NCCO)nc21
> 100 µM	34 µM	CC(C)[C@H](CO)Nc1nc(NCc2ccc(Cl)c(N)c2N)c2nnn(C(C)C)c2n1
> 100 µM	> 100 µM	Cn1nnc2c(Nc3ccc(Cl)c(N)c3)nc(NCCO)nc21
> 100 µM	22 µM	Cn1nnc2c(NCc3c(O)cc(Cl)cc3O)nc(NCCO)nc21
55 µM	18 µM	Cc1cccc(CNc2nc(N[C@@H](CO)C(C)C)nc3c2nnn3C(C)C)c1O
> 100 µM	20 µM	CC(C)[C@H](CO)Nc1nc(NCc2ccc(O)c(O)c2)c2nnn(C(C)C)c2n1
> 100 µM	–	Cn1nnc2c(Nc3cccc(Cl)c3)nc(NCCO)nc21
> 100 µM	80 µM	CC(=O)c1cccc(CNc2nc(NCCO)nc3c2nnn3C)c1
80 µM	34 µM	CC[C@H](CO)Nc1nc(NCc2cccc(C)c2O)c2nnn(C(C)C)c2n1
70 µM	25 µM	Cn1nnc2c(NCc3ccccc3)nc(NC3CCCCC3N)nc21 (stereo not shown)
> 100 µM	50 µM	CC(C)[C@H](CO)Nc1nc(NCc2ccccc2)c2nnn(C)c2n1
> 100 µM	–	CN(Cc1ccc(O)c(O)c1)c1nc(NCCO)nc2c1nnn2C
> 100 µM	10 µM	COc1cc(O)c(CNc2nc(N[C@@H](CO)C(C)C)nc3c2nnn3C(C)C)c(O)c1
80 µM	14 µM	CC[C@H](CO)Nc1nc(NCc2ccccc2O)c2nnn(C(C)C)c2n1

IC50 (IκB-α kinase)	IC50 (p34^cdc2/cyclin B (CDC2))	SMILES
50 µM	48 µM	CC(=O)Oc1cccc(CNc2nc(NCCO)nc3c2nnn3C)c1
> 100 µM	29 µM	CC[C@H](CO)Nc1nc(NCc2ccc(Cl)c(N)c2)c2nnn(C(C)C)c2n1
> 100 µM	40 µM	CC[C@H](CO)Nc1nc(NCc2ccc(O)c(O)c2)c2nnn(C(C)C)c2n1
80 µM	27 µM	CC(C)[C@H](CO)Nc1nc(Nc2cc(N)cc(Cl)c2)c2nnn(C(C)C)c2n1
> 100 µM	58 µM	CC[C@H](CO)Nc1nc(NCc2cccc(C(C)=O)c2)c2nnn(C(C)C)c2n1
> 100 µM	–	Cn1nnc2c(NCc3ccc(O)c(O)c3)nc(NCCO)nc21
> 100 µM	19 µM	CC[C@H](CO)Nc1nc(NCc2ccccc2OC(C)=O)c2nnn(C(C)C)c2n1
> 100 µM	43 µM	Cn1nnc2c(Nc3ccc(Cl)c(C(=O)O)c3)nc(NCCO)nc21
> 100 µM	31 µM	CC[C@H](CO)Nc1nc(NCc2c(N)cccc2Cl)c2nnn(C(C)C)c2n1
90 µM	26 µM	CC[C@H](CO)Nc1nc(Nc2ccc(Br)cc2)c2nnn(C(C)C)c2n1
75 µM	28 µM	CC[C@H](CO)Nc1nc(Nc2cc(N)cc(Cl)c2)c2nnn(C(C)C)c2n1
45 µM	23 µM	Cn1nnc2c(NCc3ccccc3O)nc(NCCO)nc21
50 µM	15 µM	CC(C)[C@H](CO)Nc1nc(NCc2ccccc2)c2nnn(C(C)C)c2n1
40 µM	16 µM	Cn1nnc2c(NCc3ccccc3)nc(NC3CCC(N)CC3)nc21 (stereo not shown)
75 µM	15 µM	CC[C@H](CO)Nc1nc(NCc2cccc(OC)c2O)c2nnn(C(C)C)c2n1
70 µM	35 µM	CC[C@H](CO)Nc1nc(Nc2ccc(C(=O)O)c(Cl)c2)c2nnn(C(C)C)c2n1
70 µM	29 µM	CC[C@H](CO)Nc1nc(Nc2ccccc2)c2nnn(C(C)C)c2n1
68 µM	52 µM	Cn1nnc2c(NCc3c(N)cccc3Cl)nc(NCCO)nc21

— patent publication US7816350B2, “Substituted [1,2,3] triazolo[4,5-D]pyrimidines as cdk inhibitors” (Institute of Experimental Botany ASCR, priority 2002, dated 2010)
